How the values were obtained:
[1] = molecular target: Non-receptor tyrosine-protein kinase TYK2 (Homo sapiens, UniProt P29597); test: (§1) In Vitro Assays for Determining the Inhibition of Janus Kinases: The in vitro inhibition of recombinant human JAKs was determined as follow.Compounds were tested in LANTHASCREEN™ time-resolved fluorescence energy transfer (TR-FRET) enzymatic assays from Invitrogen. The human Janus kinase 1 (JAK1) used in the assay is the recombinant JAK1 catalytic domain (amino acids 866-1154) expressed and purified from insect cells (Invitrogen, Cat. No. PV4774). The human Janus kinase 2 (JAK2) used in the assay is the recombinant JAK2 catalytic domain (amino acids 808-1132) expressed and purified from insect cells (Invitrogen, Cat. No. PV4210). The human Janus kinase 3 (JAK3) used in the assay is the recombinant JAK3 catalytic domain (amino acids 781-1124) expressed and purified from insect cells (Invitrogen, Cat. No. PV3855). The human tyrosine kinase 2 (TYK2) used in the assay is the recombinant TYK2 catalytic domain (amino acids 833-1187) expressed and purified from insect cells (Invitrogen, Cat. No. PV4790). The substrate is a recombinant STAT1 expressed as a fusion with GFP (Green Fluorescent Protein) to act as a physiological substrate (Invitrogen, Cat. No. PV5211).Test compounds were prepared and diluted in DMSO in 3-fold serial dilutions for 10 doses to 100× of the final testing concentrations. The compounds were then further diluted to 4× by the kinase reaction buffer (Invitrogen, Cat. No. PV3189). The enzymatic reaction for compound testing was performed in a white 384-well polypropylene plate (Packard, Cat. No. 6005214) with a total reaction volume of 10 μL containing 440 ng/mL JAK1, 11 ng/mL JAK2, 400 ng/mL JAK3, or 200 ng/mL TYK2, 100 nM substrate, and 1 mM ATP. The assay started with loading 2.5 μL of JAK1, JAK2, JAK3, or TYK2 diluted in the kinase reaction buffer to wells, followed by addition of an equal volume of 4× compounds for 15-min incubation at room temperature for pre-treatment. The enzymatic reaction was initiated by addition of 5 μL of a mixture of the substrate and ATP prepared in the kinase reaction buffer. […]
Chain of Non-receptor tyrosine-protein kinase TYK2 (P29597 whole entry, the tested form may be a part): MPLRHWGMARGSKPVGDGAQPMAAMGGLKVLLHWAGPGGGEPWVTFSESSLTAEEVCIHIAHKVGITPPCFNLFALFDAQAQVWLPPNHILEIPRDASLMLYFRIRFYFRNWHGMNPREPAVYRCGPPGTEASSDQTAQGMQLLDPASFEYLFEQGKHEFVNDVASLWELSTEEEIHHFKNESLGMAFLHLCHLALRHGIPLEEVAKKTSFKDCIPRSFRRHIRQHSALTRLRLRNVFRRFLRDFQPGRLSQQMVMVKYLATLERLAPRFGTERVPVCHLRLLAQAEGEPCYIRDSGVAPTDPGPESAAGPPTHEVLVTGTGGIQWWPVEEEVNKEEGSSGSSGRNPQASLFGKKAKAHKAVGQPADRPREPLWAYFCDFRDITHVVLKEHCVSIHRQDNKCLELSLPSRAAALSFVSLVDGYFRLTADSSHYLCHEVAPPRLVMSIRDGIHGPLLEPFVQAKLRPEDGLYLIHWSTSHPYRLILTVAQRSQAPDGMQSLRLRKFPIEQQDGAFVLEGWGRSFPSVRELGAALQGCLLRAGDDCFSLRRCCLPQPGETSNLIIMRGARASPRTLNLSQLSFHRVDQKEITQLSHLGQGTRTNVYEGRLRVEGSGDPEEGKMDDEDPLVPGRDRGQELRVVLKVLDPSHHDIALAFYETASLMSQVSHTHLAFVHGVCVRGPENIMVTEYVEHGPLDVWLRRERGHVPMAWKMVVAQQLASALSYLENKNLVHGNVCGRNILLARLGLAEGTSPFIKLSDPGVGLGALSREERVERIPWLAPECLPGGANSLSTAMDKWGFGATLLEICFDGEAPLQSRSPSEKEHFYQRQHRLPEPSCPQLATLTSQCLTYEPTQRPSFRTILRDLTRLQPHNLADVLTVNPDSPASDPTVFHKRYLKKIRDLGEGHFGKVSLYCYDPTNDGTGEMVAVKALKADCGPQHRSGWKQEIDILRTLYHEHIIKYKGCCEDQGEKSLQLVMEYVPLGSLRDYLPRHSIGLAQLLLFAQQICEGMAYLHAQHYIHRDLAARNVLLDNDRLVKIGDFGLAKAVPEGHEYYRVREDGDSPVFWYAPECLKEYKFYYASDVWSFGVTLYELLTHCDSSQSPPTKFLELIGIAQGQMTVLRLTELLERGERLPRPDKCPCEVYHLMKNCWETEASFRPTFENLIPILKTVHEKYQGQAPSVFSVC

[2] = molecular target: Tyrosine-protein kinase JAK1 (Homo sapiens, UniProt P23458); test: as §1
Chain of Tyrosine-protein kinase JAK1 (P23458 whole entry): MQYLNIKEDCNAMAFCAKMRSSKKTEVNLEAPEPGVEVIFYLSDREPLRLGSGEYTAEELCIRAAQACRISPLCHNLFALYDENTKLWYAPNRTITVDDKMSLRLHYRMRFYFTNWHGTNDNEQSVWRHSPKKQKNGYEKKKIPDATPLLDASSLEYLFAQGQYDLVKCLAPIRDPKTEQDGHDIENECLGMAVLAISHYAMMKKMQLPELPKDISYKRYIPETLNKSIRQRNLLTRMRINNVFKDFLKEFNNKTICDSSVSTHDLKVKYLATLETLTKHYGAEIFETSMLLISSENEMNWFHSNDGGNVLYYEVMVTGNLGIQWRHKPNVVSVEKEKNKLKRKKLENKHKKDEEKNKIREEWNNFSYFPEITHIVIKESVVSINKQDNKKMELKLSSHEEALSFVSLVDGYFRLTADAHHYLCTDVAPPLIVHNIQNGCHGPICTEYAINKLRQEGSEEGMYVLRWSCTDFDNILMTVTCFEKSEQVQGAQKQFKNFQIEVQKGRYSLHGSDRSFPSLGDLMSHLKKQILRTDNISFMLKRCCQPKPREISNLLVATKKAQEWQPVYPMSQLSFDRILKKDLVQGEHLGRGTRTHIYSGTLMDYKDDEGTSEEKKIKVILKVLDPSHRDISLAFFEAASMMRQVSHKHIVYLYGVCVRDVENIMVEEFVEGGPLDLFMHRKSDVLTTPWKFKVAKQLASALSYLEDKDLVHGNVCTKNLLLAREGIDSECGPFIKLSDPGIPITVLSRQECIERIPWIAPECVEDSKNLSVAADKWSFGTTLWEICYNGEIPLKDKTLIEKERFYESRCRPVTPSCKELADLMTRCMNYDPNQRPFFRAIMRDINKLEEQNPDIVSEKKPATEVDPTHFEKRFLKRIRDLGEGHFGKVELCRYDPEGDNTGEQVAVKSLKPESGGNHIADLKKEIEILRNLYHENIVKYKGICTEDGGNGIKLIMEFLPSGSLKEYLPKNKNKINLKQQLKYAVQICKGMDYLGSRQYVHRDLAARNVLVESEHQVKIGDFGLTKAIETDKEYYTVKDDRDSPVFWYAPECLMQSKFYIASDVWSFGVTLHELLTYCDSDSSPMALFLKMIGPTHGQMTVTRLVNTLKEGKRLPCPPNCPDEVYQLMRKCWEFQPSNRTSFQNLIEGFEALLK

[3] = molecular target: Tyrosine-protein kinase JAK2 (Homo sapiens, UniProt O60674); test: as §1
Chain of Tyrosine-protein kinase JAK2 (O60674 whole entry): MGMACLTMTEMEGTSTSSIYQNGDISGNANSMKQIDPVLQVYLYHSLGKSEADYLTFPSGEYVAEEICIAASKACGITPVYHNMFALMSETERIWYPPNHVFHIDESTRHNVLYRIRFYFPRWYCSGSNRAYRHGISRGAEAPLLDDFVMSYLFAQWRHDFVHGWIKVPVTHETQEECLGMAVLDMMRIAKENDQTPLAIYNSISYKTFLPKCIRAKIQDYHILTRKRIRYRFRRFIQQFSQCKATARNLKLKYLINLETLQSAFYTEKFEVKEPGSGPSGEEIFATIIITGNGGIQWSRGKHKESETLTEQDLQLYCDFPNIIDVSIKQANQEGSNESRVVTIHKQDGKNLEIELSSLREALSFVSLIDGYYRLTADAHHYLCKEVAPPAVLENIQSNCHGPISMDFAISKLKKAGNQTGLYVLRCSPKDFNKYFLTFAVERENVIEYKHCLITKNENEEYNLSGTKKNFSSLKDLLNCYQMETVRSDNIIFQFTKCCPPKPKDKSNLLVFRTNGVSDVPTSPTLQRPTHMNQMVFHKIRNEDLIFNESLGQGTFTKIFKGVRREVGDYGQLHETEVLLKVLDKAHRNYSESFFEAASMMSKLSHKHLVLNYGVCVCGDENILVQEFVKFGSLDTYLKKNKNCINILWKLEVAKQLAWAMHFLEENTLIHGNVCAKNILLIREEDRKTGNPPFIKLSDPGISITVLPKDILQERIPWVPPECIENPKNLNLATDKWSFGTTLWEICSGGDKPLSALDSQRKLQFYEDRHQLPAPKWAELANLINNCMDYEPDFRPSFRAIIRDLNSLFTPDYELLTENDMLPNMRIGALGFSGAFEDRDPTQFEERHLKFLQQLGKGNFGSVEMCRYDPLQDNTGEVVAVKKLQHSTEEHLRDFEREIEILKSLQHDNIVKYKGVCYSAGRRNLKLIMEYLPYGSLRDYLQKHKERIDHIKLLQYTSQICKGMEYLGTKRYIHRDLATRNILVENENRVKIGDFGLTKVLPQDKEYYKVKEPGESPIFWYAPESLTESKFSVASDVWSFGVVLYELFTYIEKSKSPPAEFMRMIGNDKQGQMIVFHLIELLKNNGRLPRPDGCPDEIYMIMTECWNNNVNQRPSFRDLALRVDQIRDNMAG

Measured: IC50

N#CC1(c2ccc(-c3cccc4nc(NC(=O)C5CC5)cn34)cc2)CC1
> 5 µM: [1] | [2] | [3]

Source: ChEMBL document CHEMBL5727863, “Substituted imidazo[1,2-A]pyridin-2-ylamine compounds, and pharmaceutical compositions and methods of use thereof” (2020)
